Source: US20260374766A1, “METHODS FOR TREATING CANCER” (Antares Therapeutics, Inc., priority 2022, published 2026)
Read-outs that look alike come from different tables or passages of the source.

Key:
[1] = biological target: T1, p53 Y220C mutant protein (amino acid residues 94-293) (Homo sapiens, UniProt P04637, Y220C); assay: Surface Plasmon Resonance (SPR) assay, Kd_kinetic; assay type: binding; details: SPR; p53 Y220C; read-out: SPR P53 Y220C KD kinetic
T1 construct: p53 Y220C mutant protein (amino acid residues 94-293)
T1 sequence (P04637 94-293, stated change not applied): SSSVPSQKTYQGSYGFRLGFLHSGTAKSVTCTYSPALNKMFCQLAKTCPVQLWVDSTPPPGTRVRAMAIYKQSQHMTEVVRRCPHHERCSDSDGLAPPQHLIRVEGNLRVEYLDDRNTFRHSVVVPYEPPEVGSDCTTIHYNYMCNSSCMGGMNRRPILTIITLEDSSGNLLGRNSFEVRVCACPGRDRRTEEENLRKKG
Procedure: Surface Plasmon Resonance (SPR) Assay Protocol
SPR experiments were performed on a Biacore 8K instrument. […] The running buffer contained 50 mM Tris, pH 7.5, 100 mM NaCl, 1 mM DTT, 0.01% Brij35, 0.05% Tween-20 and 1% DMSO. The assay temperature was maintained at 16 or 20 °C and data were fit into the 1:1 binding model using the Biacore Insight Evaluation software.

[2] = biological target: p53 Y220C (Homo sapiens, UniProt P04637, Y220C); assay: Luciferase Reporter Assay (Luc), p53 response element, NClH1299 cells with inducible p53 Y220C; assay type: cell-based; details: 6 hour; for AC50: read-out: Luc P53 Y220C AC50
Procedure: Luciferase Reporter Assay Protocol
The cells were then used for p53 reporter assay. 5,000 cells were seeded in each well of 384 plate and cultured in 0.5 ug/mL doxycycline (D3072; Sigma) containing medium for 24 hours before compound treatment. After 6 hour of compound treatment, equal volume of One-Glo reagent (E6110; Promega) was added to each well and the plate was incubated for 5 minutes with shaking at room temperature. The luciferase activity was immediately measured with PheraStar microplate reader.

[3] = tested on: H1299 p53 Y220C; assay: Cell Proliferation Assay (CellTiter-Glo, CTG), H1299 p53 Y220C (NClH1299-inducible p53 Y220C); assay type: cell-based; details: Homo sapiens, NCI-H1299, 120 h, NClH1299-inducible p53 Y220C cells, 5 days
Procedure: Inducible p53 Y220C and R273H constructs (Tet-One inducible expression system; Takara) were stably expressed in NClH1299 cells by lentiviral transduction. NUGC3, A549, BxPC3, T3M4, HuH7, HCC2935, MFE296, NClH1299, NClH1299-inducible p53 Y220C, and NClH1299-inducible p53 R273H cell lines were used for cell proliferation assay. 250-500 cells were seeded in each well of 384 plate and then compounds were dispensed into each well using Echo or Tecan. After 5 days of incubation, equal volume of CellTiter-Glo reagent (G7570; Promega) was added into each well and the plate was incubated at room temperature for 10 minutes with shaking. The luminescent signal was measured by PheraStar microplate reader and IC50 was calculated.

[4] = luciferase reporter, NClH1299 inducible p53 Y220C
[5] = NClH1299 cells with inducible p53 Y220C
[6] = NClH1299 cells with inducible p53 Y220C, 10 uM tool compound as positive control

SMILES | Kd [1] [nM] | AC50 [2, 4] [nM] | Emax [2, 4] [%] | IC50 ([3]; CellTiter-Glo) [nM] | AC50 [2, 5] [nM] | Emax [2, 6] [%] | IC50 [3] [nM]
C[C@H](O)CNC(=O)c1ccc(OC2COC2)c(NCC#Cc2cc3c(N[C@@H]4CCN(C)C[C@@H]4F)cccn3c2SC(F)(F)F)c1 [Example 400] | < 10 | < 750 | 80 to 90 | < 750 | – | – | –
[2H]C([2H])([2H])Oc1cc(S(C)(=O)=O)ccc1NCC#Cc1cc2c(N[C@@H]3CCN(C(F)(F)F)C[C@@H]3F)cccn2c1SC(F)(F)F [Example 412] | < 10 | < 750 | > 90 | – | – | – | –
CNC(=O)c1ccc(O[C@H]2C[C@@H](O)C2)c(NCC#Cc2cc3c(N[C@@H]4CCN(C)C[C@@H]4F)cccn3c2SC(F)(F)F)c1 [Example 413, 3-{[3-(8-{[(3S,4R)-3-fluoro-1-methylpiperidin-4-yl]amino}-3-[(trifluoromethyl)sulfanyl]indolizin-2-yl)prop-2-yn-1-yl]amino}-N-methyl-4-[(1s,3s)-3-hydroxycyclobutoxy]benzamide] | < 10 | < 750 | > 90 | < 750 | – | – | –
[2H]C([2H])([2H])Oc1cc(S(C)(=O)=O)ccc1NCC#Cc1nc2c(N[C@@H]3CCN(C)C[C@@H]3C)cccn2c1SC(F)(F)F [Example 454] | < 10 | – | – | – | < 750 | > 90 | –
[2H]C([2H])([2H])Oc1cc(S(C)(=O)=O)ccc1NCC#Cc1nn2c(N[C@@H]3CCN(C)C[C@@H]3F)cccc2c1SC(F)(F)F [Example 461] | < 10 | – | – | – | < 750 | > 90 | –
CNC(=O)c1ccc(OCC2(O)CC2)c(NCC#Cc2cc3c(N[C@@H]4CCN(C)C[C@@H]4F)cccn3c2SC(F)(F)F)c1 [Example 467] | < 10 | – | – | – | < 750 | > 90 | < 750
CNC(=O)c1ccc(NCC#Cc2cc3c(N[C@@H]4CCN(C)C[C@@H]4F)cccn3c2SC(F)(F)F)c(O[C@H]2C[C@@H](O)C2)c1 [Example 474] | < 10 | – | – | – | < 750 | > 90 | –
[2H]C([2H])([2H])Oc1cc(S(C)(=O)=O)ccc1NCC#Cc1cc2c(N[C@@H]3CCN(C)C[C@@H]3F)cccn2c1SC(F)(F)F [Example 485] | < 10 | – | – | – | < 750 | > 90 | –
[2H]C([2H])([2H])Oc1cc(S(C)(=O)=O)ccc1NCC#Cc1nc2c(N[C@@H]3CCN(C)C[C@@H]3F)nccn2c1SC(F)(F)F [Example 490] | < 10 | – | – | – | < 750 | > 90 | –
CNC(=O)c1cc(NCC#Cc2cc3c(N[C@@H]4CCN(C)C[C@@H]4F)cccn3c2SC(F)(F)F)c2ncnn2c1 [Example 494] | < 10 | – | – | – | < 750 | > 90 | < 750
[2H]C([2H])([2H])Oc1cc(C(=O)NC)ccc1NCC#Cc1nn2c(N[C@@H]3CCN(C)C[C@@H]3F)cccc2c1SC(F)(F)F [Example 500] | < 10 | – | – | – | < 750 | > 90 | < 750
[2H]C([2H])([2H])N1CC[C@@H](Nc2cccn3c(SC(F)(F)F)c(C#CCNc4ccc(S(C)(=O)=O)cc4OC)cc23)[C@@H](F)C1 [Example 501] | – | – | – | – | – | > 90 | < 750
[2H]C([2H])([2H])Oc1cc(C(=O)NC)ccc1NCC#Cc1nc2c(N[C@@H]3CCN(C)C[C@@H]3F)cccn2c1SC(F)(F)F [Example 505, 4-{[3-(8-{[(3S,4R)-3-fluoro-1-methylpiperidin-4-yl]amino}-3-[(trifluoromethyl)sulfanyl]imidazo[1,2-a]pyridin-2-yl)prop-2-yn-1-yl]amino}-3-(2H3)methoxy-N-methylbenzamide] | – | – | – | – | – | > 90 | < 750
[2H]C([2H])([2H])Oc1ccc(C(=O)NC)cc1NCC#Cc1nc2c(N[C@@H]3CCN(C)C[C@@H]3F)cccn2c1SC(F)(F)F [Example 507] | < 10 | – | – | – | < 750 | > 90 | < 750
